Source: patent publication US9439432B2, “Phenylisoxazoline-based compound having herbicidal activity and use thereof” (MOGHU RESEARCH CENTER LTD, priority 2011, dated 2016)

Key:
Format in all cases: in vivo
Corn [1] = assay: Pre-emergence treatment, phytotoxicity to corn; settings: 500 g/ha, 4 weeks after spraying, scale 0 to 10 (0: no effects, 10: complete death)
Summary of the method: (§1)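 Pre-emergence spray, 1 d post-sowing/irrigation; 1:1 sandy loam:bed soil; 300 L/ha; acetone + equal vol. 0.2% Tween 20; 62.5–500 g/ha. Greenhouse 25–30 °C day / 15–25 °C night. Visual 0–10 rating at 4 wk.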

Soybean [2] = assay: Pre-emergence treatment, phytotoxicity to soybean; settings: 500 g/ha, 4 weeks after spraying, scale 0 to 10 (0: no effects, 10: complete death)
Summary of the method: as §1

Cotton [3] = assay: Pre-emergence treatment, phytotoxicity to cotton; settings: 500 g/ha, 4 weeks after spraying, scale 0 to 10 (0: no effects, 10: complete death)
Summary of the method: as §1

Wheat [4] = assay: Pre-emergence treatment, phytotoxicity to wheat; settings: 500 g/ha, 4 weeks after spraying, scale 0 to 10 (0: no effects, 10: complete death)
Summary of the method: as §1

Rice [5] = assay: Pre-emergence treatment, phytotoxicity to rice; settings: 500 g/ha, 4 weeks after spraying, scale 0 to 10 (0: no effects, 10: complete death)
Summary of the method: as §1

Echinochloa crusgalli [6] = assay: Pre-emergence treatment, herbicidal efficacy on barnyardgrass; settings: 4 weeks after spraying
Summary of the method: as §1

Digitaria sanguinalis [7] = assay: Pre-emergence treatment, herbicidal efficacy on large crabgrass; settings: 4 weeks after spraying, scale 0 to 10
Summary of the method: as §1

Poa annua [8] = assay: Pre-emergence treatment, herbicidal efficacy on annual bluegrass; settings: 4 weeks after spraying, scale 0 to 10
Summary of the method: as §1

Alopecurus myosuroides [9] = assay: Pre-emergence treatment, herbicidal efficacy on blackgrass; settings: 4 weeks after spraying, scale 0 to 10
Summary of the method: as §1

Corn [10] = assay: Post-emergence treatment, phytotoxicity to corn; settings: post-emergence (about 3 leaf stage), 1,000 g/ha, 4 weeks after spraying, scale 0 to 10 (0: no effects, 10: complete death)
Summary of the method: (§2)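 Post-emergence spray at ~3-leaf stage; rates 1,000/500/250/125 g/ha, spray volume 300 L/ha; formulation acetone + equal vol. 0.2% (v/v) Tween 20. Greenhouse 25–30 °C day/15–25 °C night. Visual 0–10 score (10 = complete death) at 4 weeks.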

Soybean [11] = assay: Post-emergence treatment, phytotoxicity to soybean; settings: post-emergence (about 3 leaf stage), 1,000 g/ha, 4 weeks after spraying, scale 0 to 10 (0: no effects, 10: complete death)
Summary of the method: as §2

Cotton [12] = assay: Post-emergence treatment, phytotoxicity to cotton; settings: post-emergence (about 3 leaf stage), 1,000 g/ha, 4 weeks after spraying, scale 0 to 10 (0: no effects, 10: complete death)
Summary of the method: as §2

Wheat [13] = assay: Post-emergence treatment, phytotoxicity to wheat; settings: post-emergence (about 3 leaf stage), 1,000 g/ha, 4 weeks after spraying, scale 0 to 10 (0: no effects, 10: complete death)
Summary of the method: as §2

Rice [14] = assay: Post-emergence treatment, phytotoxicity to rice; settings: post-emergence (about 3 leaf stage), 1,000 g/ha, 4 weeks after spraying, scale 0 to 10 (0: no effects, 10: complete death)
Summary of the method: as §2

Echinochloa crusgalli [15] = assay: Post-emergence treatment, herbicidal efficacy on barnyardgrass; settings: 4 weeks after spraying, scale 0 to 10
Summary of the method: as §2

Digitaria sanguinalis [16] = assay: Post-emergence treatment, herbicidal efficacy on large crabgrass; settings: 4 weeks after spraying, scale 0 to 10
Summary of the method: as §2

Poa annua [17] = assay: Post-emergence treatment, herbicidal efficacy on annual bluegrass; settings: 4 weeks after spraying, scale 0 to 10
Summary of the method: as §2

Alopecurus myosuroides [18] = assay: Post-emergence treatment, herbicidal efficacy on blackgrass; settings: 4 weeks after spraying, scale 0 to 10
Summary of the method: as §2

[19] = test system: grass weeds including barnyardrass, large crabgrass, and annual bluegrass; assay: Pre-emergence treatment, grass weeds overall; settings: relative to reference compounds
Procedure: (§3) A rectangular plastic pot having a surface area of 300 cm^2 was filled with sandy loam soil and mixed bed soil which were mixed at a ratio of 1:1, and then, barnyardrass (Echinochloa crusgalli), large crabgrass (Digitaria sanguinalis), blackgrass (Alopecurus myosuroides), and annual bluegrass (Poa annua), which are grass weeds, were seeded thereto. In a pot that was prepared as described above, seeds of corn, soybean, cotton, wheat, and rice were seeded. The pots were irrigated, and one day after, chemicals were sprayed thereto. The spraying was performed by using a track sprayer (R&D Sprayer, USA) equipped with a Teejet 8002 (Spraying Systems Co., USA) nozzle, and a spraying amount was adjusted at 300 L/ha. A spraying solution was prepared by dissolving test materials or references in acetone and adding the same amount of 0.2%(v/v) tween 20 aqueous solution thereto. Application rates were 500, 250, 125, and 62.5 g/ha. The pots were placed in a greenhouse in which during day, the temperature was maintained at a temperature of 25 to 30° C., and during night, the temperature was maintained at a temperature of 15 to 25° C., and the pots were periodically irrigated. Four weeks after the spraying the test materials or References, effects and phytotoxicity of the respective weeds and crops were evaluated in a scale of 0 to 10 (0: no effects, 10: complete death), and results thereof are shown in Table 4 below.

[20] = test system: barnyardgrass, large crabgrass, and annual bluegrass; assay: Post-emergence treatment, grass weeds overall; settings: 250 g/ha
Procedure: as §3
Pots containing crops and weeds were prepared in the same manner as in Example 7, and then, in the second week in which crops and weeds entered into about 3 leaf stage, the test materials and the references were sprayed thereto in the same manner as described above. The rates were 1,000, 500, 250, and 125 g/ha. Four weeks after the spraying of the test materials or the references, herbicidal efficacy and phytotoxicity to the respective weeds and crops were evaluated in a scale of 0 to 10 (0: no effects, 10: complete death).

[21] = 500 g/ha, scale 0 to 10 (0: no effects, 10: complete death)

CC1(COCc2c(F)cccc2F)CC(c2ccccc2F)=NO1 (stereo not shown) [Compound 4, 5-((2,6-difluorobenzyloxy)methyl)-3-(2-fluorophenyl)-5-methyl-4,5-dihydroisoxazole]
0: Phytotoxicity, Soybean (Soybean [2]) | Phytotoxicity, Wheat (Wheat [4]) | Phytotoxicity, Rice (Rice [5]) | Phytotoxicity, Cotton (Cotton [12]) | Herbicidal efficacy, Alopecurus myosuroides (Alopecurus myosuroides [18]; post-emergence, 125 g/ha)
3: Herbicidal efficacy, Alopecurus myosuroides (Alopecurus myosuroides [9]; 62.5 g/ha)
6: Herbicidal efficacy, Digitaria sanguinalis (Digitaria sanguinalis [16]; post-emergence, 125 g/ha) | Herbicidal efficacy, Digitaria sanguinalis (Digitaria sanguinalis [16]; post-emergence, 250 g/ha) | Herbicidal efficacy, Poa annua (Poa annua [17]; post-emergence, 125 g/ha)
5: Herbicidal efficacy, Echinochloa crusgalli (Echinochloa crusgalli [15]; post-emergence, 125 g/ha)
9: Herbicidal efficacy, Poa annua (Poa annua [8]; 62.5 g/ha) | Herbicidal efficacy, Alopecurus myosuroides (Alopecurus myosuroides [18]; post-emergence, 500 g/ha)
1: Phytotoxicity, Cotton (Cotton [3]) | Phytotoxicity, Soybean (Soybean [11]) | Phytotoxicity, Wheat (Wheat [13])
greatly suppressed: suppression of barnyardgrass, large crabgrass, and annual bluegrass [20]
2: Phytotoxicity, Rice (Rice [14])
4: Phytotoxicity, Corn (Corn [1]) | Herbicidal efficacy, Alopecurus myosuroides (Alopecurus myosuroides [9]; 125 g/ha) | Phytotoxicity, Corn (Corn [10]) | Herbicidal efficacy, Alopecurus myosuroides (Alopecurus myosuroides [18]; post-emergence, 250 g/ha)
about 4 times: efficacy stronger than the References [19]
7: Herbicidal efficacy, Echinochloa crusgalli (Echinochloa crusgalli [6]; 62.5 g/ha, scale 0 to 10) | Herbicidal efficacy, Poa annua (Poa annua [17]; post-emergence, 250 g/ha)
10: Herbicidal efficacy, Echinochloa crusgalli (Echinochloa crusgalli [6]; 125 g/ha, scale 0 to 10) | Herbicidal efficacy, Echinochloa crusgalli (Echinochloa crusgalli [6]; 250 g/ha, scale 0 to 10) | Herbicidal efficacy, Echinochloa crusgalli (Echinochloa crusgalli [6]; [21]) | Herbicidal efficacy, Digitaria sanguinalis (Digitaria sanguinalis [7]; 62.5 g/ha) | Herbicidal efficacy, Digitaria sanguinalis (Digitaria sanguinalis [7]; 125 g/ha) | Herbicidal efficacy, Digitaria sanguinalis (Digitaria sanguinalis [7]; 250 g/ha) | Herbicidal efficacy, Digitaria sanguinalis (Digitaria sanguinalis [7]; 500 g/ha) | Herbicidal efficacy, Poa annua (Poa annua [8]; 125 g/ha) | Herbicidal efficacy, Poa annua (Poa annua [8]; 250 g/ha) | Herbicidal efficacy, Poa annua (Poa annua [8]; 500 g/ha) | Herbicidal efficacy, Alopecurus myosuroides (Alopecurus myosuroides [9]; 500 g/ha) | Herbicidal efficacy, Echinochloa crusgalli (Echinochloa crusgalli [15]; post-emergence, 500 g/ha) | Herbicidal efficacy, Echinochloa crusgalli (Echinochloa crusgalli [15]; post-emergence, 1,000 g/ha) | Herbicidal efficacy, Digitaria sanguinalis (Digitaria sanguinalis [16]; post-emergence, 500 g/ha) | Herbicidal efficacy, Digitaria sanguinalis (Digitaria sanguinalis [16]; post-emergence, 1,000 g/ha) | Herbicidal efficacy, Poa annua (Poa annua [17]; post-emergence, 500 g/ha) | Herbicidal efficacy, Poa annua (Poa annua [17]; post-emergence, 1,000 g/ha) | Herbicidal efficacy, Alopecurus myosuroides (Alopecurus myosuroides [18]; post-emergence, 1,000 g/ha)
8: Herbicidal efficacy, Alopecurus myosuroides (Alopecurus myosuroides [9]; 250 g/ha) | Herbicidal efficacy, Echinochloa crusgalli (Echinochloa crusgalli [15]; post-emergence, 250 g/ha)

CC1(COCc2c(F)cccc2F)CC(c2ccccc2C(F)(F)F)=NO1 (stereo not shown) [Compound 5, 5-((2,6-difluorobenzyloxy)methyl)-5-methyl-3-(2-(trifluoromethyl)phenyl)-4,5-dihydroisoxazole]
3: Phytotoxicity, Corn (Corn [1])
6: Herbicidal efficacy, Alopecurus myosuroides (Alopecurus myosuroides [9]; 125 g/ha) | Herbicidal efficacy, Echinochloa crusgalli (Echinochloa crusgalli [15]; post-emergence, 125 g/ha) | Herbicidal efficacy, Digitaria sanguinalis (Digitaria sanguinalis [16]; post-emergence, 125 g/ha) | Herbicidal efficacy, Poa annua (Poa annua [17]; post-emergence, 125 g/ha)
1: Phytotoxicity, Cotton (Cotton [3]) | Herbicidal efficacy, Alopecurus myosuroides (Alopecurus myosuroides [18]; post-emergence, 125 g/ha)
about 8 times: efficacy stronger than the References [19]
4: Herbicidal efficacy, Alopecurus myosuroides (Alopecurus myosuroides [18]; post-emergence, 250 g/ha)
8: Herbicidal efficacy, Alopecurus myosuroides (Alopecurus myosuroides [9]; 500 g/ha) | Herbicidal efficacy, Echinochloa crusgalli (Echinochloa crusgalli [15]; post-emergence, 250 g/ha) | Herbicidal efficacy, Digitaria sanguinalis (Digitaria sanguinalis [16]; post-emergence, 250 g/ha) | Herbicidal efficacy, Poa annua (Poa annua [17]; post-emergence, 500 g/ha)
0: Phytotoxicity, Wheat (Wheat [4]) | Phytotoxicity, Rice (Rice [5]) | Phytotoxicity, Cotton (Cotton [12]) | Phytotoxicity, Wheat (Wheat [13]) | Phytotoxicity, Rice (Rice [14])
greatly suppressed: suppression of barnyardgrass, large crabgrass, and annual bluegrass [20]
9: Herbicidal efficacy, Poa annua (Poa annua [8]; 62.5 g/ha) | Herbicidal efficacy, Poa annua (Poa annua [8]; 125 g/ha) | Herbicidal efficacy, Poa annua (Poa annua [8]; 250 g/ha) | Herbicidal efficacy, Alopecurus myosuroides (Alopecurus myosuroides [18]; post-emergence, 1,000 g/ha)
5: Herbicidal efficacy, Alopecurus myosuroides (Alopecurus myosuroides [9]; 62.5 g/ha) | Phytotoxicity, Corn (Corn [10]) | Herbicidal efficacy, Alopecurus myosuroides (Alopecurus myosuroides [18]; post-emergence, 500 g/ha)
2: Phytotoxicity, Soybean (Soybean [2]) | Phytotoxicity, Soybean (Soybean [11])
10: Herbicidal efficacy, Echinochloa crusgalli (Echinochloa crusgalli [6]; 62.5 g/ha, scale 0 to 10) | Herbicidal efficacy, Echinochloa crusgalli (Echinochloa crusgalli [6]; 125 g/ha, scale 0 to 10) | Herbicidal efficacy, Echinochloa crusgalli (Echinochloa crusgalli [6]; 250 g/ha, scale 0 to 10) | Herbicidal efficacy, Echinochloa crusgalli (Echinochloa crusgalli [6]; [21]) | Herbicidal efficacy, Digitaria sanguinalis (Digitaria sanguinalis [7]; 62.5 g/ha) | Herbicidal efficacy, Digitaria sanguinalis (Digitaria sanguinalis [7]; 125 g/ha) | Herbicidal efficacy, Digitaria sanguinalis (Digitaria sanguinalis [7]; 250 g/ha) | Herbicidal efficacy, Digitaria sanguinalis (Digitaria sanguinalis [7]; 500 g/ha) | Herbicidal efficacy, Poa annua (Poa annua [8]; 500 g/ha) | Herbicidal efficacy, Echinochloa crusgalli (Echinochloa crusgalli [15]; post-emergence, 500 g/ha) | Herbicidal efficacy, Echinochloa crusgalli (Echinochloa crusgalli [15]; post-emergence, 1,000 g/ha) | Herbicidal efficacy, Digitaria sanguinalis (Digitaria sanguinalis [16]; post-emergence, 500 g/ha) | Herbicidal efficacy, Digitaria sanguinalis (Digitaria sanguinalis [16]; post-emergence, 1,000 g/ha) | Herbicidal efficacy, Poa annua (Poa annua [17]; post-emergence, 1,000 g/ha)
7: Herbicidal efficacy, Alopecurus myosuroides (Alopecurus myosuroides [9]; 250 g/ha) | Herbicidal efficacy, Poa annua (Poa annua [17]; post-emergence, 250 g/ha)
